Laboratory results reported in the NIST ThermoML archive (doi:10.1021/je900596d).

Settings: for mass density: 283.24 K, Fluid (supercritical or subcritical phases), Vibrating tube method; for vapor or sublimation pressure: Liquid, Closed cell (Static) method

FC(F)=C(F)C(F)(F)F [hexafluoropropene]
Settings | mass density [kg/m3] | vapor or sublimation pressure [kPa]
114 kPa | 7.35 | –
116.4 kPa | 7.51 | –
118.8 kPa | 7.66 | –
121.1 kPa | 7.8 | –
123.6 kPa | 8.03 | –
126.1 kPa | 8.11 | –
128.5 kPa | 8.33 | –
131 kPa | 8.54 | –
133.4 kPa | 8.66 | –
135.9 kPa | 8.94 | –
140.7 kPa | 9.1 | –
143.2 kPa | 9.36 | –
145.7 kPa | 9.54 | –
148.1 kPa | 9.69 | –
150.6 kPa | 9.83 | –
153 kPa | 9.99 | –
155.6 kPa | 10.24 | –
158.1 kPa | 10.37 | –
160.5 kPa | 10.54 | –
163 kPa | 10.74 | –
165.1 kPa | 10.87 | –
167.6 kPa | 11.05 | –
170 kPa | 11.2 | –
172.5 kPa | 11.37 | –
176.6 kPa | 11.7 | –
179.2 kPa | 11.83 | –
181.6 kPa | 12.01 | –
184.2 kPa | 12.12 | –
186.6 kPa | 12.42 | –
190.9 kPa | 12.6 | –
193.4 kPa | 12.77 | –
195.9 kPa | 13.03 | –
198.4 kPa | 13.21 | –
203.3 kPa | 13.55 | –
205.8 kPa | 13.69 | –
208.3 kPa | 13.93 | –
210.8 kPa | 14.08 | –
213.3 kPa | 14.3 | –
215.8 kPa | 14.4 | –
218.3 kPa | 14.66 | –
220.8 kPa | 14.83 | –
223.3 kPa | 14.99 | –
225.7 kPa | 15.16 | –
228.2 kPa | 15.32 | –
230.7 kPa | 15.58 | –
233.2 kPa | 15.69 | –
235.7 kPa | 15.79 | –
238.2 kPa | 16.04 | –
240.7 kPa | 16.28 | –
243.2 kPa | 16.38 | –
245.6 kPa | 16.6 | –
248.1 kPa | 16.83 | –
250.7 kPa | 17.01 | –
253.2 kPa | 17.15 | –
255.6 kPa | 17.39 | –
258.1 kPa | 17.58 | –
260.5 kPa | 17.67 | –
263 kPa | 17.89 | –
265.5 kPa | 18.02 | –
268 kPa | 18.31 | –
270.4 kPa | 18.49 | –
272.9 kPa | 18.6 | –
275.4 kPa | 18.8 | –
277.9 kPa | 19.01 | –
280.5 kPa | 19.23 | –
283.1 kPa | 19.39 | –
286.3 kPa | 19.61 | –
288.21 K | – | 537.1
288.7 kPa | 19.79 | –
291.2 kPa | 19.98 | –
293.19 K | – | 625.9
293.7 kPa | 20.2 | –
296.1 kPa | 20.4 | –
298.22 K | – | 728.3
298.6 kPa | 20.56 | –
305.2 kPa | 21.07 | –
308.4 kPa | 21.36 | –
311.6 kPa | 21.56 | –
314.8 kPa | 21.85 | –
318.2 kPa | 22.13 | –
321.5 kPa | 22.28 | –
324.6 kPa | 22.54 | –
327.9 kPa | 22.87 | –
331.2 kPa | 23.12 | –
334.4 kPa | 23.37 | –
340.9 kPa | 23.85 | –
344.2 kPa | 24.11 | –
347.4 kPa | 24.4 | –
350.6 kPa | 24.64 | –
353.9 kPa | 24.84 | –
357.1 kPa | 25.07 | –
360.3 kPa | 25.34 | –
363.5 kPa | 25.56 | –
366.7 kPa | 25.93 | –
370 kPa | 26.15 | –
373.1 kPa | 26.37 | –
376.4 kPa | 26.74 | –
379.5 kPa | 26.94 | –
382.8 kPa | 27.24 | –
385.9 kPa | 27.44 | –
389.2 kPa | 27.66 | –
392.3 kPa | 27.96 | –
395.5 kPa | 28.23 | –
398.7 kPa | 28.48 | –
401.8 kPa | 28.77 | –
405 kPa | 28.98 | –
408.2 kPa | 29.26 | –
411.4 kPa | 29.53 | –
414.6 kPa | 29.77 | –
417.7 kPa | 30.05 | –
420.9 kPa | 30.37 | –
424 kPa | 30.54 | –
427.2 kPa | 30.81 | –
430.3 kPa | 31.07 | –
433.5 kPa | 31.39 | –
436.6 kPa | 31.7 | –
439.7 kPa | 31.9 | –
442.9 kPa | 32.26 | –
446 kPa | 32.45 | –
449 kPa | 32.73 | –
452.1 kPa | 32.99 | –
454.4 kPa | 33.16 | –
456.7 kPa | 33.3 | –
460.5 kPa | 33.77 | –
462.7 kPa | 33.86 | –
463.5 kPa | 34.04 | –
464.2 kPa | 34.05 | –
465 kPa | 34.18 | –
465.7 kPa | 34.33 | –
466.4 kPa | 34.49 | –
467.1 kPa | 34.74 | –
467.7 kPa | 35.03 | –
468.3 kPa | 35.5 | –
468.9 kPa | 35.71 | –
